Data taken from patent US20230339915A1 (Vertex Pharmaceuticals Incorporated, priority 2020, published 2023).

Key:
[1] = target: purified Z-AAT protein from human plasma (Homo sapiens (Human), UniProt P01009, E366K); experiment: Biochemical Assay (Z-AAT Elastase Activity Assay); settings: purified Z-AAT pre-incubated with compound 1 hour, then human neutrophil elastase and fluorescent substrate
In short: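 Purified plasma Z-AAT (20 nM) preincubated with compounds 1 h at room temperature, then 3 nM human neutrophil elastase added in PBS + 0.01% BRIJ35 for 30 min to form suicide complex. Residual elastase activity read immediately by fluorescence after adding 300 μM MeOSuc-AAPV-AMC substrate solution.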

[2] = target: NL20 human bronchial epithelial cells expressing human Z-AAT (Homo sapiens (Human), UniProt P01009, E366K); experiment: AAT Function Assay (MSD Assay NL20-SI Cell Line); format: cell-based; settings: functionally active AAT (AAT-hNE complex, MSD) in supernatant of NL20 cells expressing human Z-AAT; read-out: NL20 Functional EC50
Chain of NL20 human bronchial epithelial cells expressing human Z-AAT (P01009 25-418 E366K limits assumed): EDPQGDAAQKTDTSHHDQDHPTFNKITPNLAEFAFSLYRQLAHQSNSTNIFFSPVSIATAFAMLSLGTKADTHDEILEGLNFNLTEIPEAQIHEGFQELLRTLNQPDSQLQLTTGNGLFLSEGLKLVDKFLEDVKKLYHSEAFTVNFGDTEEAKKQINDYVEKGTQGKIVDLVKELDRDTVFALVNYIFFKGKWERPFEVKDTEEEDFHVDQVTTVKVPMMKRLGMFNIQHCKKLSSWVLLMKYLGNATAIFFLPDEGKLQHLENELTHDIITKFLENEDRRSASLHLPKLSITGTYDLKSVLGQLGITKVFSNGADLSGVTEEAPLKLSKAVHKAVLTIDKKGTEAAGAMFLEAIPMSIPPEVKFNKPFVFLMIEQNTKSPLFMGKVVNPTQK
In short: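 NL20 bronchial epithelial cells expressing Z-AAT, induced with 0.1 μM doxycycline, were treated with compound overnight. Functional AAT in supernatant was measured by complex formation with excess human neutrophil elastase, captured on anti-AAT plates, detected with Sulfo-tagged anti-elastase on MSD, and quantified against M-AAT standards (0.156–320 ng/mL).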

Chain of purified Z-AAT protein from human plasma (P01009 25-418 E366K limits assumed): as above

SMILES	IC50 [1]	EC50 [2]
CC(C)c1c(C2CC3(CC(C(=O)O)C3)C2)c2cc(O)ccc2n1-c1ccc(F)cc1 (stereo not drawn) [Compound 80]	< 2000 nM	500 to 2000 nM
COCC(C)(C)c1c(CC2(C(=O)O)CC2)c2cc(O)ccc2n1-c1ccc(F)c(C)c1 [Compound 81]	> 30000 nM	500 to 2000 nM
Cc1cc(-n2c([C@@H]3CCOC3)c([C@H]3C[C@H](C(=O)O)C3)c3cc(O)ccc32)ccc1F [Compound 84]	> 30000 nM	> 2000 nM
Cc1cc(-n2c([C@@H]3CCOC3)c([C@H]3C[C@@H](C(=O)O)C3)c3cc(O)ccc32)ccc1F [Compound 85]	> 30000 nM	> 2000 nM
Cc1cc(-n2c([C@H]3CCOC3)c([C@H]3C[C@H](C(=O)O)C3)c3cc(O)ccc32)ccc1F [Compound 86]	> 30000 nM	> 2000 nM
Cc1cc(-n2c([C@H]3CCOC3)c([C@H]3C[C@@H](C(=O)O)C3)c3cc(O)ccc32)ccc1F [Compound 87]	> 30000 nM	> 2000 nM
Cc1cc(-n2c(C(C)C)c(C3COC(C(=O)O)C3)c3cc(O)ccc32)ccc1F (stereo not drawn) [Compound 88]	> 30000 nM	> 2000 nM
Cc1cc(-n2c(C(C)C)c([C@H]3C[C@H](C(=O)O)C3)c3c(F)c(O)ccc32)ccc1F [Compound 89]	2000 to 5000 nM	500 to 2000 nM
Cc1cc(-n2c(C(C)C)c([C@H]3C[C@@H](C(=O)O)C3)c3c(F)c(O)ccc32)ccc1F [Compound 90]	> 5000 nM	500 to 2000 nM
CC(C)c1c([C@H]2C[C@@H](C(=O)O)C2)c2cc(O)ccc2n1-c1ccc(F)cc1 [Compound 91]	> 30000 nM	> 2000 nM
CC(C)c1c(C(C)CCC(=O)O)c2cc(O)ccc2n1-c1ccc(F)cc1 (stereo not drawn) [Compound 92]	> 5000 nM	> 2000 nM
Cc1cc(-n2c(C3CC3)c([C@H]3C[C@H](C(=O)O)C3)c3cc(O)ccc32)ccc1F [Compound 93]	> 30000 nM	> 2000 nM
Cc1cc(-n2c(C(C)C)c([C@H]3C[C@@](C)(C(=O)O)C3)c3cc(O)ccc32)ccc1F [Compound 94]	> 30000 nM	> 2000 nM
Cc1cc(-n2c(C(C)C)c([C@H]3C[C@](C)(C(=O)O)C3)c3cc(O)ccc32)ccc1F [Compound 95]	> 5000 nM	< 500 nM
Cc1cc(-n2c(C(C)C)c(CCCC(=O)O)c3cc(O)ccc32)ccc1F [Compound 96]	> 30000 nM	500 to 2000 nM
Cc1cc(-n2c(C(C)C)c(C3CC4(CC(C(=O)O)C4)C3)c3cc(O)ccc32)ccc1F (stereo not drawn) [Compound 97]	2000 to 5000 nM	< 500 nM
Cc1cc(-n2c(C(C)C)c([C@H]3C[C@@H](C(=O)O)C3)c3cc(O)ccc32)ccc1F [Compound 98]	> 30000 nM	> 2000 nM
Cc1cc(-n2c(C3CCOCC3)c([C@H]3C[C@](C)(C(=O)O)C3)c3cc(O)ccc32)ccc1F [Compound 99]	> 5000 nM	500 to 2000 nM
Cc1cc(-n2c(C3CCOCC3)c([C@H]3C[C@@](C)(C(=O)O)C3)c3cc(O)ccc32)ccc1F [Compound 100]	> 30000 nM	> 2000 nM
Cc1cc(-n2c(C3CCOCC3)c(CC3(C(=O)O)CC3)c3cc(O)ccc32)ccc1F [Compound 103]	> 30000 nM	> 2000 nM
Cc1cc(-n2c(C(C)C)c(CC3(C(=O)O)CC3)c3cc(O)ccc32)ccc1F [Compound 104]	> 5000 nM	500 to 2000 nM
COC[C@]1(C(=O)O)C[C@H](c2c(C3CCOCC3)n(-c3ccc(F)c(C)c3)c3ccc(O)cc32)C1 [Compound 106, trans-3-(1-(4-fluoro-3-methylphenyl)-5-hydroxy-2-(tetrahydro-2H-pyran-4-yl)-1H-indol-3-yl)-1-(methoxymethyl)cyclobutane-1-carboxylic acid]	> 30000 nM	> 2000 nM
COC[C@]1(C(=O)O)C[C@@H](c2c(C3CCOCC3)n(-c3ccc(F)c(C)c3)c3ccc(O)cc32)C1 [Compound 107, cis-3-(1-(4-fluoro-3-methylphenyl)-5-hydroxy-2-(tetrahydro-2H-pyran-4-yl)-1H-indol-3-yl)-1-(methoxymethyl)cyclobutane-1-carboxylic acid]	> 30000 nM	> 2000 nM
Cc1cc(-n2c(C3CCOCC3)c([C@H]3C[C@](CF)(C(=O)O)C3)c3cc(O)ccc32)ccc1F [Compound 108]	> 5000 nM	500 to 2000 nM
Cc1cc(-n2c(C3CCOCC3)c([C@H]3C[C@@](CO)(C(=O)O)C3)c3cc(O)ccc32)ccc1F [Compound 109]	> 30000 nM	> 2000 nM
O=C(O)[C@]1(CF)C[C@@H](c2c(C3CCOCC3)n(-c3ccc(F)c(Cl)c3)c3ccc(O)cc32)C1 [Compound 110]	> 30000 nM	> 2000 nM

SMILES	IC50 [1]	EC50 [2]
O=C(O)[C@]1(CF)C[C@H](c2c(C3CCOCC3)n(-c3ccc(F)c(Cl)c3)c3ccc(O)cc32)C1 [Compound 111]	> 30000 nM	> 2000 nM
O=C(O)[C@H]1C[C@H](c2c(C3CCOCC3)n(-c3cc(F)cc(F)c3)c3ccc(O)cc32)C1 [Compound 112]	> 30000 nM	> 2000 nM
O=C(O)[C@H]1C[C@@H](c2c(C3CCOCC3)n(-c3cc(F)cc(F)c3)c3ccc(O)cc32)C1 [Compound 113]	> 30000 nM	> 2000 nM
O=C(O)[C@H]1C[C@H](c2c(C3CCOCC3)n(-c3ccc(F)c(Cl)c3)c3ccc(O)cc32)C1 [Compound 114]	> 30000 nM	500 to 2000 nM
O=C(O)[C@H]1C[C@@H](c2c(C3CCOCC3)n(-c3ccc(F)c(Cl)c3)c3ccc(O)cc32)C1 [Compound 115]	> 30000 nM	> 2000 nM
O=C(O)[C@H]1C[C@H](c2c(C3CCOCC3)n(-c3ccc(F)c(F)c3)c3ccc(O)cc32)C1 [Compound 116]	> 30000 nM	> 2000 nM
O=C(O)[C@H]1C[C@@H](c2c(C3CCOCC3)n(-c3ccc(F)c(F)c3)c3ccc(O)cc32)C1 [Compound 117]	> 30000 nM	> 2000 nM
O=C(O)[C@]1(CF)C[C@@H](c2c(C3CCOCC3)n(-c3ccc(F)cc3)c3ccc(O)cc32)C1 [Compound 118]	> 30000 nM	> 2000 nM
O=C(O)[C@]1(CF)C[C@H](c2c(C3CCOCC3)n(-c3ccc(F)cc3)c3ccc(O)cc32)C1 [Compound 119]	> 30000 nM	> 2000 nM
COC[C@]1(C(=O)O)C[C@@H](c2c(C3CCOCC3)n(-c3ccc(F)c(C)c3)c3ccc(O)cc32)C1 [Compound 121]	> 30000 nM	> 2000 nM
Cc1cc(-n2c(C(C)C)c(CCC(=O)O)c3cc(O)ccc32)ccc1F [Compound 122]	> 30000 nM	500 to 2000 nM
Cc1cc(-n2c(C3CCOCC3)c([C@H]3C[C@](C(=O)O)(C(F)F)C3)c3cc(O)ccc32)ccc1F [Compound 123, cis-1-(difluoromethyl)-3-(1-(4-fluoro-3-methylphenyl)-5-hydroxy-2-(tetrahydro-2H-pyran-4-yl)-1H-indol-3-yl)cyclobutane-1-carboxylic acid]	> 30000 nM	> 2000 nM
CC(C)c1c([C@H]2C[C@@H]2C(=O)O)c2cc(O)c(F)cc2n1-c1ccc(F)cc1 [Compound 125]	> 30000 nM	500 to 2000 nM
Cc1cc(-n2c([C@H]3CCCO3)c([C@H]3C[C@@H]3C(=O)O)c3cc(O)ccc32)ccc1F [Compound 126]	> 30000 nM	> 2000 nM
CCc1c([C@H]2C[C@@H]2C(=O)O)c2cc(O)ccc2n1-c1ccc(F)c(C)c1 [Compound 127]	> 30000 nM	> 2000 nM
Cc1cc(-n2c(C(C)C)c([C@H]3C[C@H]3C(=O)O)c3cc(O)ccc32)ccc1F [Compound 128]	> 30000 nM	> 2000 nM
Cc1cc(-n2c(C3COC3)c([C@H]3C[C@@H]3C(=O)O)c3cc(O)ccc32)ccc1F [Compound 131]	> 30000 nM	> 2000 nM
Cc1cc(-n2c(C3CC3)c([C@H]3C[C@@H]3C(=O)O)c3cc(O)ccc32)ccc1F [Compound 132]	> 30000 nM	> 2000 nM
Cc1cc(-n2c(C(C)C)c([C@H]3C[C@@H]3C(=O)O)c3cc(O)ccc32)ccc1F [Compound 134]	> 5000 nM	500 to 2000 nM
Cc1cc(-n2c(C(C)C)c([C@@H]3C[C@H]3C(=O)O)c3cc(O)ccc32)ccc1F [Compound 135]	> 30000 nM	> 2000 nM
O=C(O)[C@H]1CC[C@H](c2c(C3CCOCC3)n(-c3ccc(F)c(F)c3)c3ccc(O)cc32)CC1 [Compound 137]	> 30000 nM	> 2000 nM
O=C(O)[C@H]1CC[C@@H](c2c(C3CCOCC3)n(-c3ccc(F)c(F)c3)c3ccc(O)cc32)CC1 [Compound 138]	> 30000 nM	> 2000 nM
Cc1cc(-n2c(C(F)(F)F)c([C@H]3C[C@](C)(C(=O)O)C3)c3cc(O)ccc32)ccc1F [Compound 139, trans-3-(1-(4-fluoro-3-methylphenyl)-5-hydroxy-2-(trifluoromethyl)-1H-indol-3-yl)-1-methylcyclobutane-1-carboxylic acid]	> 5000 nM	500 to 2000 nM
Cc1cc(-n2c(C(F)(F)F)c(C3CC4(CC(C(=O)O)C4)C3)c3cc(O)ccc32)ccc1F (stereo not drawn) [Compound 140, 6-(1-(4-fluoro-3-methylphenyl)-5-hydroxy-2-(trifluoromethyl)-1H-indol-3-yl)spiro[3.3]heptane-2-carboxylic acid]	> 5000 nM	500 to 2000 nM
CC(C)c1c([C@H]2C[C@H](C(=O)O)C2)c2cc(O)ccc2n1-c1ccc(F)c(F)c1 [Compound 141, trans-3-(1-(3,4-difluorophenyl)-5-hydroxy-2-isopropyl-1H-indol-3-yl)cyclobutane-1-carboxylic acid]	> 5000 nM	500 to 2000 nM
